# Tests used:
# [1] = test system: Drechslera teres (PYRNTE) containing the amino acid substitution F129L in the mitochondrial cytochrome b protein; experiment: Use example 10: microtest, growth of Drechslera teres (PYRNTE) F129L; type: cell-based; conditions: relative growth vs compound-free control (100%), 7 days; for Growth (%) PYRNTE F129L Use ex. 10: 125 ppm, Table 12
# Procedure: (§1) The active compounds were formulated separately as a stock solution having a concentration of 10000 ppm in dimethyl sulfoxide. The stock solutions were mixed according to the ratio, pipetted onto a micro titer plate (MTP) and diluted with water to the stated concentrations. A spore suspension of one of the following fungal plant pathogens in aqueous bio malt solution • was then added for the respective use example: • Use example 5: Alternaria solani (ALTESO) • Use example 6: Botrytis cinerea (BOTRCI) • Use example 7: Cercospora sojina (CERCSO) • Use example 8: Colletotrichum orbiculare (COLLLA) • Use example 9: Leptosphaeria nodorum (LEPTNO) • Use example 10: Drechslera teres (PYRNTE) containing the amino acid substitution F129L in the mitochondrial cytochrome b protein conferring resistance to Qo inhibitors • Use example 11: Sclerotinia sclerotiorum (SCLESC), solute with ultrasonic from a filter membrane
# (§2) The plates were placed in a water vapor-saturated chamber at a temperature of 18° C. Using an absorption photometer, the MTPs were measured at 405 nm 7 days after the inoculation.
# (§3) The measured parameters were compared to the growth of the active compound-free control variant (100%) and the fungus-free blank value to determine the relative growth in % of the pathogens in the respective active compounds.
# [2] = test system: Cercospora sojina (CERCSO); experiment: Use example 7: microtest, growth of Cercospora sojina (CERCSO); type: cell-based; conditions: relative growth vs compound-free control (100%); for Growth (%) CERCSO Use ex. 7: 125 ppm, 7 days, Table 12; for Growth at 31 ppm (%) CERCSO Use ex. 7: 7 days after inoculation
# Procedure: as §1, §2, §3
# Puccinia recondita [3] = experiment: Use Example 4: preventative control of brown rust on wheat (PUCCRT P7); type: in vivo; conditions: inoculated seven days after spraying, % diseased leaf area
# Summary of the method: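 Preventative test: Puccinia recondita spores dusted onto wheat seedlings seven days after spraying their first two leaves to run-off with the formulated compound. After 24 h humid dark incubation at 20–24 °C and 9–11 days of greenhouse growth at 65–70% RH, infection rated visually as % diseased leaf area.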
# [4] = test system: Phakopsora pachyrhizi containing the amino acid substitution F129L in the mitochondrial cytochrome b protein; experiment: Use Example 1: protective control of soybean rust on soybeans (PHAKPA P2); type: in vivo; conditions: inoculated 2 days after spraying, % diseased leaf area
# Summary of the method: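 Protective test: plants were inoculated with the F129L cytochrome b rust strain 2 days after spraying to run-off, then held 24 h humid (~95% RH, 20-24° C) and up to 14 days at 23-27° C, 60-80% RH. Readout was visually assessed percent diseased leaf area.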
# [5] = test system: Leptosphaeria nodorum (LEPTNO); experiment: Use example 9: microtest, growth of Leptosphaeria nodorum (LEPTNO); type: cell-based; conditions: relative growth vs compound-free control (100%), 7 days, Table 10
# Procedure: as §1, §2, §3
# Puccinia recondita [6] = experiment: Use Example 3: curative control of brown rust on wheat (PUCCRT K4); type: in vivo; conditions: % diseased leaf area
# Summary of the method: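 Wheat seedlings inoculated with Puccinia recondita spores, held 24 h at 95–99% RH, 20–24° C in dark, then 3 days in greenhouse before spraying to run-off (curative). Compound in acetone/DMSO–Wettol–water. After 5–7 further days at 20–24° C, 65–70% RH, % diseased leaf area scored visually.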
# [7] = test system: Phakopsora pachyrhizi containing the amino acid substitution F129L in the mitochondrial cytochrome b protein; experiment: Use Example 2: protective control of soybean rust on soybeans (PHAKPA P6); type: in vivo; conditions: inoculated six days after spraying, % diseased leaf area
# Summary of the method: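 Disease was rated visually as % diseased leaf area up to 14 days after inoculation (23–27°C, 60–80% RH). Inoculum was P. pachyrhizi carrying cytochrome b F129L, followed by 24 h in a humid chamber (~95% RH). Inoculation came six days after protective spraying of seedlings with compound in acetone/DMSO–Wettol–water.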
# [8] = test system: Colletotrichum orbiculare (COLLLA); experiment: Use example 8: microtest, growth of Colletotrichum orbiculare (COLLLA); type: cell-based; conditions: 2 ppm; relative growth vs compound-free control (100%), 7 days after inoculation
# Procedure: as §1, §2, §3
SMILES,Growth (%) PYRNTE F129L Use ex. 10 [1],Growth (%) CERCSO Use ex. 7 [2],% PUCCRT Disease level P7 at 4 ppm (Puccinia recondita [3]),% PUCCRT Disease level P7 at 16 ppm (Puccinia recondita [3]),% PHAKPA (F129L) Disease level P2 at 4 ppm [4],% PHAKPA (F129L) Disease level P2 at 16 ppm [4],Growth at 125 ppm (%) LEPTNO Use ex. 9 [5],% PUCCRT Disease level K4 at 4 ppm (Puccinia recondita [6]),% PUCCRT Disease level K4 at 16 ppm (Puccinia recondita [6]),% PHAKPA (F129L) Disease level P6 at 4 ppm [7],% PHAKPA (F129L) Disease level P6 at 16 ppm [7],Growth at 8 ppm (%) PYRNTE F129L Use ex. 10 [1],Growth at 2 ppm (%) COLLLA Use ex. 8 [8],Growth at 31 ppm (%) CERCSO Use ex. 7 [2]
"CNC(=O)/C(=N/OC)c1cccc(C)c1CO/N=C(\COC)c1ccc(Cl)cc1 [I.3-A-83, reference compound]",26%,89%,,,,,,,,,,,,
"CO/C=C(/C(=O)OC)c1cccc(Br)c1CO/N=C(\COC)c1ccc(F)cc1 [compound 10, Methyl-(E)-2-[3-bromo-2-[[(Z)-[1-(4-fluorophenyl)-2-methoxy-ethylidene]amino]oxymethyl]phenyl]-3-methoxy-prop-2-enoate]",,,10%,2%,4%,0%,3%,13%,2%,8%,0%,,,
"CO/C=C(/C(=O)OC)c1cccc(C)c1CO/N=C(\COC)c1cccc(F)c1 [1.2-A-75, reference compound]",,,,,,,,,,,,34%,,
"CNC(=O)/C(=N/OC)c1cccc(Cl)c1CO/N=C(\COC)c1ccccc1 [compound 4, (2E)-2-[3-chloro-2-[[(Z)-(2-methoxy-1-phenyl-ethylidene)amino]oxymethyl]phenyl]-2-methoxyimino-N-methyl-acetamide]",,,17%,4%,,,,77%,9%,,,,29%,
COC/C(=N\OCc1c(C)cccc1/C(=N\OC)C(=O)OC)c1cccc(Cl)c1 [reference compound],,,,,,,,,,,,,,60%
CO/C=C(/C(=O)OC)c1cccc(F)c1CO/N=C(\COC)c1ccc(F)cc1 [compound 17],,,37%,8%,8%,0%,0%,53%,6%,17%,2%,,,
COC/C(=N\OCc1c(Cl)cccc1/C(=N\OC)C(=O)OC)c1cccc(Cl)c1 [compound 37],,,40%,5%,67%,18%,,75%,72%,72%,39%,,,40%
CNC(=O)/C(=N/OC)c1cccc(C)c1CO/N=C(\COC)c1ccccc1 [reference compound],,,,,,,,,,,,,44%,
"COC/C(=N\OCc1c(C)cccc1/C(=N\OC)C(=O)OC)c1ccc(F)cc1 [I.2-A-82, reference compound]",,,,,,,19%,,,,,,,
"CO/C=C(/C(=O)OC)c1cccc(Cl)c1CO/N=C(\COC)c1cccc(F)c1 [compound 14, Methyl-(E)-2-[3-chloro-2-[[(Z)-[1-(3-fluorophenyl)-2-methoxy-ethylidene]amino]oxymethyl]phenyl]-3-methoxy-prop-2-enoate]",,,13%,2%,3%,0%,,22%,1%,2%,0%,3%,,
CCOCC(=NOCc1c(Cl)cccc1C(=COC)C(=O)OC)c1ccccc1 [compound 54],,,75%,27%,21%,1%,,77%,30%,20%,3%,,,
CNC(=O)/C(=N/OC)c1cccc(Cl)c1CO/N=C(\COC)c1cccc(Cl)c1 [compound 43],,,10%,3%,6%,0%,,72%,10%,20%,2%,,,
CNC(=O)/C(=N/OC)c1cccc(Cl)c1CO/N=C(\COC)c1ccc(Cl)cc1 [compound 36],2%,12%,6%,0%,65%,3%,,82%,2%,57%,10%,,,
CNC(=O)/C(=N/OC)c1cccc(Cl)c1CO/N=C(\COC)c1c(F)cc(Cl)cc1F [compound 102],,,32%,6%,21%,1%,,80%,36%,16%,2%,,,
COC/C(=N\OCc1c(Cl)cccc1/C(=N\OC)C(=O)OC)c1ccc(F)cc1F [compound 62],,,55%,1%,5%,0%,,37%,2%,6%,0%,,,
COC/C(=N\OCc1c(Cl)cccc1/C(=N\OC)C(=O)OC)c1c(F)cc(F)cc1F [compound 28],,,57%,4%,67%,13%,,75%,77%,85%,27%,,,
"CO/C=C(/C(=O)OC)c1cccc(Cl)c1CO/N=C(/C#Cc1ccc(F)cc1)COC [compound 7, Methyl (E)-2-[3-chloro-2-[[(Z)-[3-(4-fluorophenyl)-1-(methoxymethyl)prop-2-ynylidene]amino]oxymethyl]phenyl]-3-methoxy-prop-2-enoate]",,,35%,4%,2%,0%,,70%,50%,11%,0%,,,
COC/C(=N\OCc1c(Cl)cccc1/C(=N\OC)C(=O)OC)c1c(F)cccc1F [compound 83],,,32%,12%,2%,0%,,37%,18%,0%,0%,,,

# Reference: patent US20260165323A1, “USE OF STROBILURIN TYPE COMPOUNDS FOR COMBATING PHYTOPATHOGENIC FUNGI CONTAINING AN AMINO ACID SUBSTITUTION F129L IN THE MITOCHONDRIAL CYTOCHROME B PROTEIN CONFERRING RESISTANCE TO QO […]” (priority 2022, published 2026)
